Reference: patent US9635854B2, “Controlling red rice with mesotrione” (FMC Corporation, priority 2014, dated 2017)
Like-named read-outs stand apart in the source and are kept apart here.

Assays:
[1] = tested on: Rice (Oryza sativa) 'Taggart'; conditions: PRE, direct-seeded dryland rice
Description: (§1) Rice (Oryza sativa) was planted in 6″ by 10″ fiber flats filled with sterile top soil. Five rows were made in each flat and the three rice varieties (′Cybonee, ‘Jupiter’, and ‘Taggart’) were planted in the center 3 rows and a row of red rice (Oryza sativa) was planted on either end of the flat. The flats were watered after planting. After application flats were placed in the greenhouse and lightly watered. […] The flats were moved to a greenhouse and watered and fertilized routinely. Studies were conducted using randomized complete block design with four replications. In both studies, visual percent red rice control and rice injury were recorded at 14, 21, and 28 days after treatment (DAT), using a scale of 0 (no control/injury) to 100 (complete plant death).

[2] = tested on: Rice (Oryza sativa) 'Jupiter'; conditions: PRE, direct-seeded dryland rice
Description: as §1

large crabgrass = assay: Direct seeded dryland rice test, pre-emergent (FIG. 2); format: in vivo; conditions: pre-emergent treatment at 25 g ai/ha
[3] = tested on: Rice (Oryza sativa) 'Taggart'; conditions: PRE, direct-seeded flooded rice
Description: (§2) Rice (Oryza sativa) crop varieties (‘Cybonee’, ‘Jupiter’, and ‘Taggart’) and red rice (Oryza sativa) were planted in 6 inch plastic pots containing sterile top soil. Eight to ten seeds of each species were seeded at 12 o'clock, 3 o'clock, 6 o'clock or 9 o'clock around the pot. The pots were watered after planting. […] The test solutions were applied using a compressed air track spray chamber at 30 gallons per acre using a Teejet 8001E nozzle at 40 PSI, three replicates per test rate. After treatment, the pots were watered lightly and transferred to trays in a greenhouse. After the plants were two inches in height the trays were flooded with water and maintained as such for 14 days. The trays were emptied of water and the pots were maintained by regular watering for 4 more days. At 14, 21 and 28 days after treatment (DAT) the plants were evaluated versus untreated control pots containing the same rice and weeds using a scale of 0% (no control) to 100% (complete plant death).

[4] = tested on: Rice (Oryza sativa) 'Cybonee'; conditions: PRE, direct-seeded flooded rice
Description: as §2

[5] = tested on: Rice (Oryza sativa) 'Jupiter'; conditions: PRE, direct-seeded flooded rice
Description: as §2

Question: Which results are given for `CS(=O)(=O)c1ccc(C(=O)C2C(=O)CCCC2=O)c([N+](=O)[O-])c1` [Mesotrione, mesotrione]?
Answer: Percent rice injury Taggart ([1]; 14 DAT, 12.5 g ai/ha): 0 E %; Percent rice injury Taggart ([1]; 14 DAT, 25 g ai/ha): 0 E %; Percent rice injury Taggart ([1]; 14 DAT, 37.5 g ai/ha): 1 E %; Percent rice injury Taggart ([1]; 14 DAT, 50 g ai/ha): 2 DE %; Percent rice injury Taggart ([1]; 14 DAT, 62.5 g ai/ha): 6 C %; Percent rice injury Taggart ([1]; 14 DAT, 75 g ai/ha): 5 CD %; Percent rice injury Taggart ([1]; 14 DAT, 87.5 g ai/ha): 9 BC %; Percent rice injury Taggart ([1]; 14 DAT, 100 g ai/ha): 11 B %; Percent rice injury Taggart ([1]; 21 DAT, 12.5 g ai/ha): 0 C %; Percent rice injury Taggart ([1]; 21 DAT, 25 g ai/ha): 0 C %; Percent rice injury Taggart ([1]; 21 DAT, 37.5 g ai/ha): 1 BC %; Percent rice injury Taggart ([1]; 21 DAT, 50 g ai/ha): 5 BC %; Percent rice injury Taggart ([1]; 21 DAT, 62.5 g ai/ha): 9 BC %; Percent rice injury Taggart ([1]; 21 DAT, 75 g ai/ha): 10 BC %; Percent rice injury Taggart ([1]; 21 DAT, 87.5 g ai/ha): 11 BC %; Percent rice injury Taggart ([1]; 21 DAT, 100 g ai/ha): 13 B %; Percent rice injury Taggart ([1]; 28 DAT, 12.5 g ai/ha): 0 D %; Percent rice injury Taggart ([1]; 28 DAT, 25 g ai/ha): 0 D %; Percent rice injury Taggart ([1]; 28 DAT, 37.5 g ai/ha): 1 D %; Percent rice injury Taggart ([1]; 28 DAT, 50 g ai/ha): 6 CD %; Percent rice injury Taggart ([1]; 28 DAT, 62.5 g ai/ha): 12 BCD %; Percent rice injury Taggart ([1]; 28 DAT, 75 g ai/ha): 23 BC %; Percent rice injury Taggart ([1]; 28 DAT, 87.5 g ai/ha): 29 B %; Percent rice injury Taggart ([1]; 28 DAT, 100 g ai/ha): 50 A %; Percent rice injury Jupiter ([2]; 14 DAT, 12.5 g ai/ha): 0 E %; Percent rice injury Jupiter ([2]; 14 DAT, 25 g ai/ha): 0 E %; Percent rice injury Jupiter ([2]; 14 DAT, 37.5 g ai/ha): 2 DE %; Percent rice injury Jupiter ([2]; 14 DAT, 50 g ai/ha): 3 DE %; Percent rice injury Jupiter ([2]; 14 DAT, 62.5 g ai/ha): 5 CD %; Percent rice injury Jupiter ([2]; 14 DAT, 75 g ai/ha): 8 BC %; Percent rice injury Jupiter ([2]; 14 DAT, 87.5 g ai/ha): 10 BC %; Percent rice injury Jupiter ([2]; 14 DAT, 100 g ai/ha): 11 B %; Percent rice injury Jupiter ([2]; 21 DAT, 12.5 g ai/ha): 0 E %; Percent rice injury Jupiter ([2]; 21 DAT, 25 g ai/ha): 0 E %; Percent rice injury Jupiter ([2]; 21 DAT, 37.5 g ai/ha): 2 DE %; Percent rice injury Jupiter ([2]; 21 DAT, 50 g ai/ha): 6 CDS %; Percent rice injury Jupiter ([2]; 21 DAT, 62.5 g ai/ha): 7 CD %; Percent rice injury Jupiter ([2]; 21 DAT, 75 g ai/ha): 10 BC %; Percent rice injury Jupiter ([2]; 21 DAT, 87.5 g ai/ha): 11 BC %; Percent rice injury Jupiter ([2]; 21 DAT, 100 g ai/ha): 14 B %; Percent rice injury Jupiter ([2]; 28 DAT, 12.5 g ai/ha): 0 D %; Percent rice injury Jupiter ([2]; 28 DAT, 25 g ai/ha): 0 D %; Percent rice injury Jupiter ([2]; 28 DAT, 37.5 g ai/ha): 1 D %; Percent rice injury Jupiter ([2]; 28 DAT, 50 g ai/ha): 6 CD %; Percent rice injury Jupiter ([2]; 28 DAT, 62.5 g ai/ha): 8 CD %; Percent rice injury Jupiter ([2]; 28 DAT, 75 g ai/ha): 21 BC %; Percent rice injury Jupiter ([2]; 28 DAT, 87.5 g ai/ha): 26 B %; Percent rice injury Jupiter ([2]; 28 DAT, 100 g ai/ha): 56 A %; large crabgrass control (words, FIG. 2) (large crabgrass): controlled; Percent rice injury Taggart ([3]; 14 DAT, 12.5 g ai/ha): 4 B %; Percent rice injury Taggart ([3]; 14 DAT, 25 g ai/ha): 1 B %; Percent rice injury Taggart ([3]; 14 DAT, 37.5 g ai/ha): 4 B %; Percent rice injury Taggart ([3]; 14 DAT, 50 g ai/ha): 7 B %; Percent rice injury Taggart ([3]; 14 DAT, 62.5 g ai/ha): 12 B %; Percent rice injury Taggart ([3]; 14 DAT, 75 g ai/ha): 12 B %; Percent rice injury Taggart ([3]; 14 DAT, 87.5 g ai/ha): 19 B %; Percent rice injury Taggart ([3]; 14 DAT, 100 g ai/ha): 18 B %; Percent rice injury Taggart ([3]; 21 DAT, 12.5 g ai/ha): 1 D %; Percent rice injury Taggart ([3]; 21 DAT, 25 g ai/ha): 1 D %; Percent rice injury Taggart ([3]; 21 DAT, 37.5 g ai/ha): 1 D %; Percent rice injury Taggart ([3]; 21 DAT, 50 g ai/ha): 6 D %; Percent rice injury Taggart ([3]; 21 DAT, 62.5 g ai/ha): 10 CD %; Percent rice injury Taggart ([3]; 21 DAT, 75 g ai/ha): 25 BCD %; Percent rice injury Taggart ([3]; 21 DAT, 87.5 g ai/ha): 35 BC %; Percent rice injury Taggart ([3]; 21 DAT, 100 g ai/ha): 38 B %; Percent rice injury Taggart ([3]; 28 DAT, 12.5 g ai/ha): 2 C %; Percent rice injury Taggart ([3]; 28 DAT, 25 g ai/ha): 4 C %; Percent rice injury Taggart ([3]; 28 DAT, 37.5 g ai/ha): 4 C %; Percent rice injury Taggart ([3]; 28 DAT, 50 g ai/ha): 9 C %; Percent rice injury Taggart ([3]; 28 DAT, 62.5 g ai/ha): 9 C %; Percent rice injury Taggart ([3]; 28 DAT, 75 g ai/ha): 29 BC %; Percent rice injury Taggart ([3]; 28 DAT, 87.5 g ai/ha): 42 AB %; Percent rice injury Taggart ([3]; 28 DAT, 100 g ai/ha): 53 AB %; Percent rice injury Cybonet ([4]; 14 DAT, 12.5 g ai/ha): 2 B %; Percent rice injury Cybonet ([4]; 14 DAT, 25 g ai/ha): 0 B %; Percent rice injury Cybonet ([4]; 14 DAT, 37.5 g ai/ha): 3 B %; Percent rice injury Cybonet ([4]; 14 DAT, 50 g ai/ha): 4 B %; Percent rice injury Cybonet ([4]; 14 DAT, 62.5 g ai/ha): 11 B %; Percent rice injury Cybonet ([4]; 14 DAT, 75 g ai/ha): 9 B %; Percent rice injury Cybonet ([4]; 14 DAT, 87.5 g ai/ha): 12 B %; Percent rice injury Cybonet ([4]; 14 DAT, 100 g ai/ha): 11 B %; Percent rice injury Cybonet ([4]; 21 DAT, 12.5 g ai/ha): 1 C %; Percent rice injury Cybonet ([4]; 21 DAT, 25 g ai/ha): 4 C %; Percent rice injury Cybonet ([4]; 21 DAT, 37.5 g ai/ha): 8 C %; Percent rice injury Cybonet ([4]; 21 DAT, 50 g ai/ha): 6 C %; Percent rice injury Cybonet ([4]; 21 DAT, 62.5 g ai/ha): 13 BC %; Percent rice injury Cybonet ([4]; 21 DAT, 75 g ai/ha): 32 ABC %; Percent rice injury Cybonet ([4]; 21 DAT, 87.5 g ai/ha): 44 AB %; Percent rice injury Cybonet ([4]; 21 DAT, 100 g ai/ha): 49 A %; Percent rice injury Cybonet ([4]; 28 DAT, 12.5 g ai/ha): 5 CD %; Percent rice injury Cybonet ([4]; 28 DAT, 25 g ai/ha): 7 CD %; Percent rice injury Cybonet ([4]; 28 DAT, 37.5 g ai/ha): 9 CD %; Percent rice injury Cybonet ([4]; 28 DAT, 50 g ai/ha): 7 CD %; Percent rice injury Cybonet ([4]; 28 DAT, 62.5 g ai/ha): 17 BCD %; Percent rice injury Cybonet ([4]; 28 DAT, 75 g ai/ha): 32 ABC %; Percent rice injury Cybonet ([4]; 28 DAT, 87.5 g ai/ha): 52 A %; Percent rice injury Cybonet ([4]; 28 DAT, 100 g ai/ha): 62 A %; Percent rice injury Jupiter ([5]; 14 DAT, 12.5 g ai/ha): 2 B %; Percent rice injury Jupiter ([5]; 14 DAT, 25 g ai/ha): 2 B %; Percent rice injury Jupiter ([5]; 14 DAT, 37.5 g ai/ha): 4 B %; Percent rice injury Jupiter ([5]; 14 DAT, 50 g ai/ha): 2 B %; Percent rice injury Jupiter ([5]; 14 DAT, 62.5 g ai/ha): 5 B %; Percent rice injury Jupiter ([5]; 14 DAT, 75 g ai/ha): 6 B %; Percent rice injury Jupiter ([5]; 14 DAT, 87.5 g ai/ha): 12 B %; Percent rice injury Jupiter ([5]; 14 DAT, 100 g ai/ha): 11 B %; Percent rice injury Jupiter ([5]; 21 DAT, 12.5 g ai/ha): 0 D %; Percent rice injury Jupiter ([5]; 21 DAT, 25 g ai/ha): 0 D %; Percent rice injury Jupiter ([5]; 21 DAT, 37.5 g ai/ha): 1 CD %; Percent rice injury Jupiter ([5]; 21 DAT, 50 g ai/ha): 3 CD %; Percent rice injury Jupiter ([5]; 21 DAT, 62.5 g ai/ha): 5 CD %; Percent rice injury Jupiter ([5]; 21 DAT, 75 g ai/ha): 13 BCD %; Percent rice injury Jupiter ([5]; 21 DAT, 87.5 g ai/ha): 22 BC %; Percent rice injury Jupiter ([5]; 21 DAT, 100 g ai/ha): 28 B %; Percent rice injury Jupiter ([5]; 28 DAT, 12.5 g ai/ha): 2 D %; Percent rice injury Jupiter ([5]; 28 DAT, 25 g ai/ha): 2 D %; Percent rice injury Jupiter ([5]; 28 DAT, 37.5 g ai/ha): 4 D %; Percent rice injury Jupiter ([5]; 28 DAT, 50 g ai/ha): 5 D %; Percent rice injury Jupiter ([5]; 28 DAT, 62.5 g ai/ha): 8 CD %; Percent rice injury Jupiter ([5]; 28 DAT, 75 g ai/ha): 20 BCD %; Percent rice injury Jupiter ([5]; 28 DAT, 87.5 g ai/ha): 44 B %; Percent rice injury Jupiter ([5]; 28 DAT, 100 g ai/ha): 41 BC %
